# Experiment: Exploratory aldehyde trapping studies in PBS and ACN/H2O (MS)
# Assay type: biochemical
# Settings: 10 μM aldehyde, 1 mM trapping reagent, PBS or 50/50 ACN/H2O
# Experimental: Semicarbazide (SCZ), glutathione (GSH), cysteine, and N-acetyl cysteine were used as trapping agents with the aldehydes 4-hydroxynonenal (4-HNE), malondialdehyde, acetaldehyde, hexanal, pentanal, and decanal. 10 μM of aldehyde was mixed with 1 mM of trapping reagent in either PBS or 50/50 ACN/H2O.
Compound,"trapping effectiveness, comparison of trapping agents",trapping of aldehydes as judged by MS
"NNC(N)=O [semicarbazide, Semicarbazide]",more effective than GSH,appeared to trap aldehydes
N[C@@H](CCC(=O)N[C@@H](CS)C(=O)NCC(=O)O)C(=O)O [glutathione],,appeared to trap aldehydes
